Patent US12215116B2, “Arginase inhibitors and methods of use” (Merck Sharp & Dohme LLC, priority 2018, dated 2025)
Counter-ions that a name gives are not always drawn.

Key:
[1] = tested on: opossum internal anal sphincter muscle; conditions: cited from earlier work
guinea pigs = conditions: nebulizer treatment, allergic asthma model; cited from earlier work
[2] = tested on: rabbit and human penile corpus cavernosum; conditions: rabbit and human tissue; cited from earlier work
live male rabbits = conditions: cited from earlier work
[3] = tested on: corpus cavernosum of the diabetic man; conditions: ex vivo; cited from earlier work
live female rabbits = conditions: cited from earlier work
[4] = tested on: animal model of multiple sclerosis (experimental autoimmune encephalomyelitis); conditions: cited from earlier work
Arginase (ARG1 enzyme) = biological target: T1, Arginase (ARG1 enzyme) (Homo sapiens, UniProt P05089); test: Arginase Thioornithine Generating Assay (TOGA); assay type: biochemical; conditions: 1.88 nM arginase, thioarginine substrate, fluorescence readout
T1 construct: made in house; host or cells: Escherichia coli
T1 sequence (P05089 1-322): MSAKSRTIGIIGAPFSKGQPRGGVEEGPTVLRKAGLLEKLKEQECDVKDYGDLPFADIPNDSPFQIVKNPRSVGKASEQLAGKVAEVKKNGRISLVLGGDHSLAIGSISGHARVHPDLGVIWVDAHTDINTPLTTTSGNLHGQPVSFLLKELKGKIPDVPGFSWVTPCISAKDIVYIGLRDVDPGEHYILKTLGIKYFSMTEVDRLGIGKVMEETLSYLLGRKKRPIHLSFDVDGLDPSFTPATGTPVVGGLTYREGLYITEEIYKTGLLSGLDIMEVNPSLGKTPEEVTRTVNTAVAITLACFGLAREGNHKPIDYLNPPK
Experimental: Arginase Thioornithine Generating Assay (TOGA)
Compounds were serially diluted in ten 3-fold steps in DMSO starting from 10 mM DMSO stocks. Compound dilutions or DMSO alone were then dispensed from the dilution plate into a Greiner black 384-well assay plate (catalog #781086) using an Echo 555 acoustic liquid handler (Labcyte).
Arginase protein was recombinantly expressed in Escherichia coli. Purified protein was then diluted in assay buffer (50 mM Tris pH 7.5, 50 mM NaCl, 1 mM manganese chloride, 0.05% bovine serum albumin to obtain a final Arginase concentration of 1.88 nM. Arginase solution (20 μL) or buffer alone (20 μL) were dispensed to wells of the assay plate using a BioRAPTR liquid dispenser (Beckman Coulter). Assay plates containing compound and ARG1 enzyme were incubated at room temperature for 30 minutes. Afterwards, 5 μL of 2.5 mM thioarginine (Cayman Chemicals) in assay buffer were added to each well of the assay plate using a BioRAPTR liquid dispenser. Plates were incubated at room temperature for 60 minutes and reactions were quenched by addition of 15 μL of […] 7-Diethylamine-3-(4-maleimidophenyl)-4-methylcoumarin (Sigma Chemical) in 70% ethanol. Plates were briefly shaken to mix and the fluorescence was measured in an Spectramax plate reader (Molecular Devices) with a 410 nm excitation wavelength and an 490 nm emission wavelength.
Potencies were calculated by […] to the four parameter logistic IC50 equation.

IC50 (Arginase (ARG1 enzyme)) [nM] | SMILES | further results
 | N[C@@H](CCCCB(O)O)C(=O)O [ABH, (S)-2-amino-6-boronohexanoic acid] | relaxation of internal anal sphincter muscle [1]: relax this muscle; airway hyperresponsiveness (guinea pigs): prevents airway hyperresponsiveness; nitric oxide-dependent relaxation of penile corpus cavernosum [2]: enhances the nitric oxide-dependent relaxation of this tissue; erectile response (live male rabbits): enhances the erectile response; nitric oxide biosynthesis [3]: restores nitric oxide biosynthesis; engorgement response in the genitalia (live female rabbits): enhances the engorgement response; disease score [4]: improves the disease score
> 10000 | CC1(C)N[C@H](C(=O)O)[C@](C)(CCCB(O)O)[C@@H]1O [Example 75] | 
12900 | O=C(O)C1C(CCCB(O)O)CCN1CCN1CCCCC1 (centres unmarked) [Example 10, 3-(3-boronopropyl)-1-(2-(piperidin-1-yl)ethyl)pyrrolidine-2-carboxylic acid] | 
8730 | O=C(O)[C@@H]1CC(CCB(O)O)CN1 (some centres unmarked) [Example 18, 4-[2-(dihydroxyboranyl)ethyl]proline] | 
13 | O=C(N[C@H]1CN[C@H](C(=O)O)[C@@H]1CCCB(O)O)[C@@H]1CCCN1 [Example 49, (2S,3R,4R)-3-(3-boronopropyl)-4-((S)-pyrrolidine-2-carboxamido)pyrrolidine-2-carboxylic acid] | 
30 | CC1(C)[C@H]2C[C@@H]3OB(CCC[C@@H]4CCN[C@@H]4C(=O)O)O[C@]3(C)[C@@H]1C2 [Example 13, (3R)-3-{3-[(3aR,4R,6R,7aS)-3a,5,5-trimethylhexahydro-4,6-methano-1,3,2-benzodioxaborol-2-yl]propyl}-L-proline] | 
> 10000 | NC1CN[C@H](C(=O)O)C1CCCB(O)O (single isomer, unassigned) [Example 33A] | 
15.9 | O=C(O)[C@@]1(CCN2CCCC2)NCC[C@H]1CCCB(O)O [Example 55] | 
1450 | C[C@@]1(C(=O)O)NCC[C@H]1CCCB(O)O [Example 16C, (3R)-3-[3-(dihydroxyboranyl)propyl]-2-methyl-D-proline] | 
3450 | NCC1CN[C@H](C(=O)O)C1CCCB(O)O (stereo partly drawn) [Example 34, (2S)-4-(aminomethyl)-3-(3-boronopropyl)pyrrolidine-2-carboxylic acid] | 
16 | C[C@@]1(CCCB(O)O)CCN[C@@H]1C(=O)O [Example 14, (3R)-3-[3-(dihydroxyboranyl)propyl]-3-methyl-L-proline] | 
10.2 | CC(C)(O)[C@H](N)C(=O)N[C@H]1CN[C@H](C(=O)O)[C@@H]1CCCB(O)O [Example 39, (2S,3R,4R)-4-((S)-2-amino-3-hydroxy-3-methylbutanamido)-3-(3-boronopropyl)pyrrolidine-2-carboxylic acid] | 
8 | NC[C@@]1(CCCB(O)O)CN[C@@H]1C(=O)O [Example 67, (2S,3S)-3-(aminomethyl)-3-(3-boronopropyl)azetidine-2-carboxylic acid] | 
2 | CC[C@@H](C)[C@H](N)C(=O)N[C@H]1CN[C@H](C(=O)O)[C@@H]1CCCB(O)O [Example 44, (2S,3R,4R)-4-((2S,3R)-2-amino-3-methylpentanamido)-3-(3-boronopropyl)pyrrolidine-2-carboxylic acid] | 
> 10000 | N[C@]1(C(=O)O)CNC[C@]1(CO)CCCB(O)O [Example 94D] | 
1.58 | CC(C)C[C@H](N)C(=O)N[C@H]1CN[C@H](C(=O)O)[C@@H]1CCCB(O)O [Example 42, (2S,3R,4R)-4-((S)-2-amino-4-methylpentanamido)-3-(3-boronopropyl)pyrrolidine-2-carboxylic acid] | 
119 | CN(C)C[C@@]1(CCCB(O)O)CCN[C@@H]1C(=O)O [Example 86, (2S,3R)-3-(3-boronopropyl)-3-((dimethylamino)methyl)pyrrolidine-2-carboxylic acid] | 
396 | O=C(O)C1(CCN2CCCCC2)NCCCC1CCCB(O)O (centres unmarked) [Example 2, 3-[3-(dihydroxyboranyl)propyl]-2-[2-(piperidin-1-yl)ethyl]piperidinyl-2-carboxylic acid] | 

IC50 (Arginase (ARG1 enzyme)) [nM] | SMILES | further results
2 | CC[C@H](C)[C@H](N)C(=O)N[C@H]1CN[C@H](C(=O)O)[C@@H]1CCCB(O)O [Example 45, (2S,3R,4R)-4-((2S,3S)-2-amino-3-methylpentanamido)-3-(3-boronopropyl)pyrrolidine-2-carboxylic acid] | 
5710 | NC[C@]1(C(=O)O)NCC[C@H]1CCCB(O)O (single isomer, unassigned) [Example 57B] | 
119 | C[C@@]1(CCCB(O)O)CCN[C@]1(C)C(=O)O [Example 72, (2S,3R)-3-(3-boronopropyl)-2,3-dimethylpyrrolidine-2-carboxylic acid] | 
5370 | O=C(O)[C@]1(CCN2CCCCC2)CC(CCB(O)O)CN1 (some centres unmarked) [Example 19, 4-[2-(dihydroxyboranyl)ethyl]-2-[2-(piperidin-1-yl)ethyl]proline] | 
> 10000 | C[C@H]1N[C@H](C(=O)O)[C@](C)(CCCB(O)O)[C@@H]1O [Example 74B] | 
6.62 | C[C@@H]1C[C@@H](CCCB(O)O)[C@@H](C(=O)O)N1 [Example 64, (2S,3R,5R)-3-(3-boronopropyl)-5-methylpyrrolidine-2-carboxylic acid] | 
13.4 | N#C[C@@]1(CCCB(O)O)CCN[C@@H]1C(=O)O [Example 88, (2S,3S)-3-(3-boronopropyl)-3-cyanopyrrolidine-2-carboxylic acid] | 
3810 | OCC1NCCC1CCCB(O)O (centres unmarked) [Example 12, {3-[2-(hydroxymethyl)pyrrolidin-3-yl]propyl}boronic acid] | 
> 10000 | NCC1(C(=O)O)CCC(CCB(O)O)C1 (mixture of isomers) [Example 95, 1-(aminomethyl)-3-(2-boronoethyl)cyclopentane-1-carboxylic acid] | 
> 10000 | O=C(O)[C@H]1NC[C@H](O)[C@@H]1CCCB(O)O [Example 82, (2S,3R,4R)-3-(3-boronopropyl)-4-hydroxypyrrolidine-2-carboxylic acid] | 
66.3 | CNC[C@H]1CN[C@H](C(=O)O)[C@]1(C)CCCB(O)O [Example 79] | 
57500 | O=C(O)C1CNCCC1CCCB(O)O (centres unmarked) [Example 6, 4-[3-(dihydroxyboranyl)propyl]piperidinyl-3-carboxylic acid] | 
92.1 | O=C(O)[C@H]1NCC[C@H]1SCCB(O)O [Example 93, (2R,3R)-3-((2-boronoethyl)thio)pyrrolidine-2-carboxylic acid hydrochloride] | 
20 | O=C(O)[C@H]1NCC(CO)[C@H]1CCCB(O)O (stereo partly drawn) [Example 91, (2S,3R)-3-(3-boronopropyl)-4-(hydroxymethyl)pyrrolidine-2-carboxylic acid] | 
> 10000 | O=C(O)C1CNCC1CCCB(O)O (single isomer, unassigned) [Example 21C, 4-[3-(dihydroxyboranyl)propyl]pyrrolidine-3-carboxylic acid] | 
6.69 | NCCN[C@H]1CN[C@H](C(=O)O)[C@@H]1CCCB(O)O [Example 31, (2S,3R,4R)-4-((2-aminoethyl)amino)-3-(3-boronopropyl)pyrrolidine-2-carboxylic acid] | 
83 | CC(C)[C@H](N)C(=O)N[C@H]1CN[C@H](C(=O)O)[C@]1(C)CCCB(O)O [Example 70, (2S,3R,4R)-4-((S)-2-amino-3-methylbutanamido)-3-(3-boronopropyl)-3-methylpyrrolidine-2-carboxylic acid] | 

SMILES | IC50 (Arginase (ARG1 enzyme)) [nM] | further results
O=C(O)C1NCCCC1CCCB(O)O (centres unmarked) [Example 1, 3-[3-(dihydroxyboranyl)propyl]piperidinyl-2-carboxylic acid] | 660 | 
O=C(O)C1CC(CCB(O)O)CCN1 (centres unmarked) [Example 4, 4-[2-(dihydroxyboranyl)ethyl]piperidinyl-2-carboxylic acid] | 19800 | 
O=C(O)[C@H]1NC[C@H](NCC(F)(F)F)[C@H]1CCCB(O)O [Example 26, (2S,3R,4R)-3-(3-boronopropyl)-4-((2,2,2-trifluoroethyl)amino)pyrrolidine-2-carboxylic acid] | 120 | 
